Data from patent publication US20240269220A1, “USES OF BLETILLA FORMOSANA EXTRACT FOR THE TREATMENT OF DISEASES ASSOCIATED WITH DYSREGULATED ACTIVATION OF NEUTROPHILS” (Chang Gung University, priority 2022, published 2024).

Columns and labels:
[1] = system: fMLF/CB-activated human neutrophils; assay: Neutrophil elastase release in fMLF/CB-activated human neutrophils; format: cell-based; conditions: chemical components of the extract
Protocol: (§1) The study was conducted with the approval of the Institutional Review Board of Chang Gung Memorial Hospital in accordance with the Declaration of Helsinki. After written informed consent was obtained, whole blood samples were drawn from healthy individuals aged 20-30 years who had not taken any medication within the previous 5 weeks. Neutrophils were then isolated using the standard procedures for dextran sedimentation, Ficoll-Hypaque gradient centrifugation, and hypotonic lysis of erythrocytes. The isolated neutrophils were then suspended in Ca^2+-free HBSS (pH 7.4) and stored at 4° C. until use.
Human neutrophils (6×10^5 cells/mL) were incubated with DMSO or the present B. formosana extract after treatment with 1 mM CaCl2 and 100 μM NE substrate (Methoxysuccinyl-Ala-Ala-Pro-Val-p-nitroanilide) at 37° C. for 5 min. Cells were stimulated with fMLF (0.1 μM)/cytochalasin B (CB) (0.5 μg/mL) for 10 min before determination of NE release by measuring the change of absorbance at 405 nm in a spectrophotometer.

[2] = system: fMLF/CB-activated human neutrophils; assay: Extracellular superoxide anion production (ferricytochrome c reduction) in fMLF/CB-activated human neutrophils; format: cell-based; conditions: Neutrophil, chemical components of the extract, read-out: Superoxide anions IC50
Protocol: as §1
Extracellular superoxide anion production in activated neutrophils was assessed through the reduction of ferricytochrome c. After incubating them with Ca^2+(1 mM) and ferricytochrome c (0.6 mg/mL) at 37° C., the isolated human neutrophils (6×10^5 cells/mL) were then incubated with DMSO or the present B. formosana extract for 5 min. The cells were pretreated with cytochalasin B (CB, 1 or 2 μg/mL) for 3 min and stimulated with fMLF. The change in absorbance at 550 nm was detected continuously using a spectrophotometer (U-3010, Hitachi, Tokyo, Japan), and superoxide anion levels were calculated using a method described previously (Hwang et al., 2003 Mol. Pharmacol. 64(6), 1419-1427).

Row | IC50 [1] [µM] | IC50 [2] [µM] | SMILES
1 | > 10 | 4.63 ± 0.54 | COc1cccc(CCc2cc(O)cc(OC)c2)c1 [BF8-4-2, 3′,5-dimethoxy-3-hydroxybibenzyl]
2 | 7.41 ± 0.5 | 4.64 ± 0.23 | COc1cc(CCc2cccc(O)c2)cc(OC)c1 [BF8-4-3, 3,5-dimethoxy-3′-hydroxybibenzyl]
3 | 2.71 ± 0.16 | 1.86 ± 0.21 | COc1cc(O)cc(CCc2ccccc2)c1 [BF8-4-4, 3-hydroxy-5-methoxybibenzyl]
4 | > 10 | 4.3 ± 0.5 | COc1cc(O)cc(CCc2cccc(O)c2)c1 [Batatasin III, 3,3′-dihydroxy-5-methoxybibenzyl]
5 | 6.26 ± 1.19 | 0.66 ± 0.12 | COc1cc(O)c(Cc2ccc(O)cc2)c2c1-c1ccc(O)cc1CC2 [Orchidble, 9,10-dihydro-1-[(4-hydroxyphenyl)methyl]-4-methoxy-2,7-phenanthrenediol]
